{"source": "patent US20090215758A1", "about": "“Use of 2,5-Disubstituted Thiazol-4-One Derivatives in Drugs” (Gruenenthal GmbH, priority 2005, published 2009)", "key": {"[1]": {"target": "T1, vanilloid receptor 1 (VR1/TRPV1) of the rat species (Rattus norvegicus, UniProt O35433)", "T1 construct": "The spinal column is removed from beheaded rats; from tissue; host or cells: primary cells from rat dorsal root ganglia (DRGs)", "T1 sequence (O35433 whole entry)": "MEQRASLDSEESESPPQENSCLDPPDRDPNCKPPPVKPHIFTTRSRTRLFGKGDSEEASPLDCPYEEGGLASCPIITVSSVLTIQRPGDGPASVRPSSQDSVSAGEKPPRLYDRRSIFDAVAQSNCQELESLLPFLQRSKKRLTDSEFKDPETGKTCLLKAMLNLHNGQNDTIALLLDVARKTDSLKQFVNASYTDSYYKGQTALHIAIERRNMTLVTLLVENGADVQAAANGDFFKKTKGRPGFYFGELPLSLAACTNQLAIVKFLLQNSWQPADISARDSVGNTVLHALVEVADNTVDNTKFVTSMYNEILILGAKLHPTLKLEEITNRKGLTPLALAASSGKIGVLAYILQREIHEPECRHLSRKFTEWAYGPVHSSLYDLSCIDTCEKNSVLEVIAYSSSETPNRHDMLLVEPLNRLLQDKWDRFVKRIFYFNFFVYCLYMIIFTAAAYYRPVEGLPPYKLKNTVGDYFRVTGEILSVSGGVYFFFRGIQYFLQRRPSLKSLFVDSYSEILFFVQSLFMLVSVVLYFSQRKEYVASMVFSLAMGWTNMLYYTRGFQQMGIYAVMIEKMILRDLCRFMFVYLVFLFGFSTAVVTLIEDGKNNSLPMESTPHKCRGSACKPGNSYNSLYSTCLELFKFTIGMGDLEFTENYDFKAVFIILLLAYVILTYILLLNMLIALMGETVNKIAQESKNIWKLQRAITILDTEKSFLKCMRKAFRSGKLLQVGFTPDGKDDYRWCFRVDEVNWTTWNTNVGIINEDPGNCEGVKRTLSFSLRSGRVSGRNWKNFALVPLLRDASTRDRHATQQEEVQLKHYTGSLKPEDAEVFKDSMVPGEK", "assay": "Functional study on vanilloid receptor 1, FLIPR Ca2+ assay in rat dorsal root ganglia cells", "assay_type": "cell-based", "conditions": "for inhibition at 10 µM / activation at 10 µM / VR1 (rat) (% inhibition compared to 10 μM CP) / VR1 (rat) (% stimulation compared to 10 μM CP): test compound 10 μM; for inhibition at 10 µM / VR1 (rat) (% inhibition compared to 10 μM CP): 5 min incubation, then 100 nM capsaicin, relative to maximum inhibition with 10 μM capsaicin; for inhibition at 10 µM: read-out: VR1 (rat) (% inhibition compared to 10 μM CP); for activation at 10 µM / VR1 (rat) (% stimulation compared to 10 μM CP): Ca2+ signal relative to 10 μM capsaicin (CP); for activation at 10 µM: read-out: VR1 (rat) (% stimulation compared to 10 μM CP); for EC50: unit inferred"}, "[2]": {"target": "T2, VR1 (human) (Homo sapiens, UniProt Q8NER1)", "T2 construct": "expressed in transfected cells; host or cells: CHO K1 cells (ECACC), stably transfected", "T2 sequence (Q8NER1 whole entry)": "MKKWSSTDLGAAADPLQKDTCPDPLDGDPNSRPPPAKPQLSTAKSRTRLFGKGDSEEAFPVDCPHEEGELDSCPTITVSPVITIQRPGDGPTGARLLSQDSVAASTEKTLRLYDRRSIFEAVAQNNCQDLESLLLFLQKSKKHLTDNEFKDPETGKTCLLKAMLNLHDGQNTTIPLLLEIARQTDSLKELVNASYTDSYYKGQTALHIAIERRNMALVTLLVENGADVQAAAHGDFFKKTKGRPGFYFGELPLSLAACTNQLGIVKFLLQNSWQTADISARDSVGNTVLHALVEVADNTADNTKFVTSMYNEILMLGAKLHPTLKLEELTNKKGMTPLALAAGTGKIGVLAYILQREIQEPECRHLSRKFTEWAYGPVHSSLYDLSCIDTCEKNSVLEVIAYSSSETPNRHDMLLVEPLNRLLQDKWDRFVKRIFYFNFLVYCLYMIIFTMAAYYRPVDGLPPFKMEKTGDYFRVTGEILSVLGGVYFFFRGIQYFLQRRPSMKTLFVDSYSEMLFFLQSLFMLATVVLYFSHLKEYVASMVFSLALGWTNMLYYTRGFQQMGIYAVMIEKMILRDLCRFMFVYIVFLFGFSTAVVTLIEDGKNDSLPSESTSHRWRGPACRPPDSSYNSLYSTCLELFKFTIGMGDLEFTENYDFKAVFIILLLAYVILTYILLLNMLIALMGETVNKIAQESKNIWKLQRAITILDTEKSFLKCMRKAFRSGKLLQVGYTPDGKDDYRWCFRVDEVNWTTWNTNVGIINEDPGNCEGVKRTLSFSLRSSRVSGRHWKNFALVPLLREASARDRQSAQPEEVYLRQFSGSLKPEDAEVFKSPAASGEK", "assay": "Functional study on vanilloid receptor (VR1), FLIPR Ca2+ assay in CHO K1 cells stably transfected with the VR1 gene", "assay_type": "cell-based", "conditions": "for inhibition at 10 µM / activation at 10 µM: CHO-K1, test compound 10 μM; for inhibition at 10 µM / VR1 (human) (% inhibition compared to 10 μM CP): 5 min incubation, then 100 nM capsaicin, compared to 10 μM CP; for activation at 10 µM / VR1 (human) (% stimulation compared to 10 μM CP): Ca2+ signal relative to 10 μM capsaicin (CP); for activation at 10 µM: read-out: VR1 (human) (% stimulation compared to 10 μM CP); for EC50: unit inferred; for VR1 (human) (% inhibition compared to 10 μM CP) / VR1 (human) (% stimulation compared to 10 μM CP): test compound 10 μM"}}, "note": "Where a name gives a salt, the structure may show the parent alone."}
{"smiles": "CC(C)(C)c1ccc(C=C2SC(N3CCCCCC3)=NC2=O)cc1", "note": "[Example 200, 2-azepan-1-yl-5-(4-tert-butylbenzylidene)thiazol-4-one hydrobromide]", "values": [{"measurement": "inhibition at 10 µM", "setting": "[1]", "result": 46.2, "unit": "%"}, {"measurement": "activation at 10 µM", "setting": "[1]", "result": 31.4, "unit": "%"}, {"measurement": "EC50", "setting": "[1]", "result": "> 25", "unit": "µM"}, {"measurement": "inhibition at 10 µM", "setting": "[2]", "result": 2.12, "unit": "%"}, {"measurement": "activation at 10 µM", "setting": "[2]", "result": 17.5, "unit": "%"}, {"measurement": "EC50", "setting": "[2]", "result": "> 25", "unit": "µM"}]}
{"smiles": "O=C1N=C(N2CCOCC2)SC1=Cc1cccc(C(F)(F)F)c1", "note": "[Example 205, 2-morpholin-4-yl-5-(3-trifluoromethylbenzylidene)thiazol-4-one hydrobromide]", "values": [{"measurement": "inhibition at 10 µM", "setting": "[1]", "result": 96.4, "unit": "%"}, {"measurement": "activation at 10 µM", "setting": "[1]", "result": 79.6, "unit": "%"}, {"measurement": "inhibition at 10 µM", "setting": "[2]", "result": 103, "unit": "%"}, {"measurement": "activation at 10 µM", "setting": "[2]", "result": 68.2, "unit": "%"}]}
{"smiles": "O=C1N=C(N2CCOCC2)SC1=Cc1cccc(C(F)(F)F)c1", "note": "[Example 206, 2-morpholin-4-yl-5-(3-trifluoromethylbenzylidene)thiazol-4-one]", "values": [{"measurement": "VR1 (rat) (% inhibition compared to 10 μM CP)", "setting": "[1]", "result": 102.30, "unit": "%"}, {"measurement": "VR1 (rat) (% stimulation compared to 10 μM CP)", "setting": "[1]", "result": 76.51, "unit": "%"}, {"measurement": "VR1 (human) (% inhibition compared to 10 μM CP)", "setting": "[2]", "result": 95.06, "unit": "%"}, {"measurement": "VR1 (human) (% stimulation compared to 10 μM CP)", "setting": "[2]", "result": 77.26, "unit": "%"}]}
{"smiles": "O=C1N=C(N2CCOCC2)SC1=Cc1cccc2ccccc12", "note": "[Example 209, 2-morpholin-4-yl-5-naphthalen-1-ylmethylenethiazol-4-one]", "values": [{"measurement": "inhibition at 10 µM", "setting": "[1]", "result": 34.7, "unit": "%"}, {"measurement": "activation at 10 µM", "setting": "[1]", "result": 40, "unit": "%"}, {"measurement": "EC50", "setting": "[1]", "result": 14.8, "unit": "µM"}, {"measurement": "inhibition at 10 µM", "setting": "[2]", "result": 5.47, "unit": "%"}, {"measurement": "activation at 10 µM", "setting": "[2]", "result": 9.44, "unit": "%"}, {"measurement": "EC50", "setting": "[2]", "result": 28.4, "unit": "µM"}]}
{"smiles": "O=C1N=C(N2CCOCC2)SC1=Cc1ccccn1", "note": "[Example 210, 2-morpholin-4-yl-5-pyridin-2-ylmethylenethiazol-4-one]", "values": [{"measurement": "inhibition at 10 µM", "setting": "[1]", "result": 23, "unit": "%"}, {"measurement": "activation at 10 µM", "setting": "[1]", "result": 2.22, "unit": "%"}, {"measurement": "inhibition at 10 µM", "setting": "[2]", "result": 3.03, "unit": "%"}, {"measurement": "activation at 10 µM", "setting": "[2]", "result": 1.83, "unit": "%"}]}
{"smiles": "CCN(CC)C1=NC(=O)C(=Cc2cccc(C(F)(F)F)c2)S1", "note": "[Example 214, 2-diethylamino-5-(3-trifluoromethylbenzylidene)thiazol-4-one]", "values": [{"measurement": "inhibition at 10 µM", "setting": "[1]", "result": 50.1, "unit": "%"}, {"measurement": "activation at 10 µM", "setting": "[1]", "result": 13.7, "unit": "%"}, {"measurement": "inhibition at 10 µM", "setting": "[2]", "result": 56.7, "unit": "%"}, {"measurement": "activation at 10 µM", "setting": "[2]", "result": 6.08, "unit": "%"}]}
{"smiles": "Cc1ccc(C=C2SC(N3CCCC3)=NC2=O)cc1", "note": "[Example 215, 5-(4-methylbenzylidene)-2-pyrrolidin-1-ylthiazol-4-one]", "values": [{"measurement": "inhibition at 10 µM", "setting": "[1]", "result": 4.47, "unit": "%"}, {"measurement": "activation at 10 µM", "setting": "[1]", "result": 2.14, "unit": "%"}, {"measurement": "inhibition at 10 µM", "setting": "[2]", "result": 49.8, "unit": "%"}, {"measurement": "activation at 10 µM", "setting": "[2]", "result": 3.64, "unit": "%"}]}
{"smiles": "COCCNC1=NC(=O)C(=Cc2ccc(C(C)(C)C)cc2)S1", "note": "[Example 216, 5-(4-tert-butylbenzylidene)-2-(2-methoxyethylamino)thiazol-4-one hydrobromide]", "values": [{"measurement": "inhibition at 10 µM", "setting": "[1]", "result": 22.1, "unit": "%"}, {"measurement": "activation at 10 µM", "setting": "[1]", "result": 1.24, "unit": "%"}, {"measurement": "EC50", "setting": "[1]", "result": 1.5, "unit": "µM"}, {"measurement": "inhibition at 10 µM", "setting": "[2]", "result": 51.1, "unit": "%"}, {"measurement": "activation at 10 µM", "setting": "[2]", "result": 2.08, "unit": "%"}, {"measurement": "EC50", "setting": "[2]", "result": 5.4, "unit": "µM"}]}
{"smiles": "Cc1ccc(C=C2SC(N3CCOCC3)=NC2=O)cc1", "note": "[Example 218, 5-(4-methylbenzylidene)-2-morpholin-4-ylthiazol-4-one]", "values": [{"measurement": "VR1 (rat) (% inhibition compared to 10 μM CP)", "setting": "[1]", "result": 78.83, "unit": "%"}, {"measurement": "VR1 (rat) (% stimulation compared to 10 μM CP)", "setting": "[1]", "result": 55.76, "unit": "%"}, {"measurement": "VR1 (human) (% inhibition compared to 10 μM CP)", "setting": "[2]", "result": 12.88, "unit": "%"}, {"measurement": "VR1 (human) (% stimulation compared to 10 μM CP)", "setting": "[2]", "result": 17.91, "unit": "%"}]}
{"smiles": "CC(C)(C)c1ccc(C=C2SC(N3CCOCC3)=NC2=O)cc1", "note": "[Example 222, 5-(4-tert-butylbenzylidene)-2-morpholin-4-ylthiazol-4-one]", "values": [{"measurement": "VR1 (rat) (% inhibition compared to 10 μM CP)", "setting": "[1]", "result": 98.64, "unit": "%"}, {"measurement": "VR1 (rat) (% stimulation compared to 10 μM CP)", "setting": "[1]", "result": 102.46, "unit": "%"}, {"measurement": "VR1 (human) (% inhibition compared to 10 μM CP)", "setting": "[2]", "result": 79.67, "unit": "%"}, {"measurement": "VR1 (human) (% stimulation compared to 10 μM CP)", "setting": "[2]", "result": 41.92, "unit": "%"}]}
{"smiles": "CCN(CC)c1ccc(C=C2SC(N3CCOCC3)=NC2=O)cc1", "note": "[Example 223, 5-(4-diethylaminobenzylidene)-2-morpholin-4-ylthiazol-4-one]", "values": [{"measurement": "inhibition at 10 µM", "setting": "[1]", "result": 9.3, "unit": "%"}, {"measurement": "activation at 10 µM", "setting": "[1]", "result": 102, "unit": "%"}, {"measurement": "inhibition at 10 µM", "setting": "[2]", "result": 57.7, "unit": "%"}, {"measurement": "activation at 10 µM", "setting": "[2]", "result": 70.5, "unit": "%"}]}
{"smiles": "COc1ccc(C=C2SC(N3CCOCC3)=NC2=O)cc1", "note": "[Example 228, 5-(4-methoxybenzylidene)-2-morpholin-4-ylthiazol-4-one]", "values": [{"measurement": "inhibition at 10 µM", "setting": "[1]", "result": 4.84, "unit": "%"}, {"measurement": "activation at 10 µM", "setting": "[1]", "result": 16, "unit": "%"}, {"measurement": "EC50", "setting": "[1]", "result": 14.3, "unit": "µM"}, {"measurement": "inhibition at 10 µM", "setting": "[2]", "result": 0.61, "unit": "%"}, {"measurement": "activation at 10 µM", "setting": "[2]", "result": 12.2, "unit": "%"}, {"measurement": "EC50", "setting": "[2]", "result": 26.5, "unit": "µM"}]}
{"smiles": "O=C1N=C(N2CCOCC2)SC1=Cc1ccc(Br)cc1", "note": "[Example 232, 5-(4-bromobenzylidene)-2-morpholin-4-ylthiazol-4-one]", "values": [{"measurement": "inhibition at 10 µM", "setting": "[1]", "result": 96.2, "unit": "%"}, {"measurement": "activation at 10 µM", "setting": "[1]", "result": 80.4, "unit": "%"}, {"measurement": "inhibition at 10 µM", "setting": "[2]", "result": 43.8, "unit": "%"}, {"measurement": "activation at 10 µM", "setting": "[2]", "result": 29.2, "unit": "%"}]}
{"smiles": "O=C1N=C(N2CCOCC2)SC1=Cc1ccc(OS(=O)(=O)c2ccccc2)cc1", "note": "[Example 234, benzenesulfonic acid 4-(2-morpholin-4-yl-4-oxo-4H-thiazol-5-ylidenemethyl)phenyl ester]", "values": [{"measurement": "inhibition at 10 µM", "setting": "[1]", "result": 98.1, "unit": "%"}, {"measurement": "activation at 10 µM", "setting": "[1]", "result": 57.9, "unit": "%"}, {"measurement": "inhibition at 10 µM", "setting": "[2]", "result": 27.8, "unit": "%"}, {"measurement": "activation at 10 µM", "setting": "[2]", "result": 46.1, "unit": "%"}]}
{"smiles": "CN(C)c1ccc(C=C2SC(N3CCOCC3)=NC2=O)cc1", "note": "[Example 235, 5-(4-dimethylaminobenzylidene)-2-morpholin-4-ylthiazol-4-one]", "values": [{"measurement": "inhibition at 10 µM", "setting": "[1]", "result": 13.7, "unit": "%"}, {"measurement": "activation at 10 µM", "setting": "[1]", "result": 123, "unit": "%"}, {"measurement": "inhibition at 10 µM", "setting": "[2]", "result": 44.5, "unit": "%"}, {"measurement": "activation at 10 µM", "setting": "[2]", "result": 73.9, "unit": "%"}]}
